From PubChem BioAssay (NCI)
Several values for one entry are separate records, joined by “and”; a condition that tells them apart may be missing. Equal entries are not always repeated.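 Results reflect a 48-hour exposure of cells in 96-well plates to compound at five concentrations. GI50 is the concentration that inhibits growth by half. TGI is the concentration that stops growth completely.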

What was measured:
Assay in all cases: NCI tumour cell line growth inhibition, 48 h
[1] = system: CCRF-CEM leukemia
[2] = system: ACHN renal
[3] = system: SN12C renal
[4] = system: OVCAR-3 ovarian
[5] = system: MDA-MB-435
[6] = system: SF-539 CNS
[7] = system: NCI-H460 lung
[8] = system: HL-60(TB) leukemia
[9] = system: NCI/ADR-RES ovarian
[10] = system: EKVX NSCLC

Structure (SMILES) | GI50 [1] [µM] | TGI [1] | GI50 [2] [µM] | TGI [2] | GI50 [3] [µM] | TGI [3] | GI50 [4] [µM] | TGI [4] | GI50 [5] [µM] | TGI [5] | GI50 [6] [µM] | TGI [6] | GI50 [7] [µM] | TGI [7] [µM] | GI50 [8] [µM] | TGI [8] | GI50 [9] [µM] | TGI [9] [µM] | GI50 [10] [µM] | TGI [10]
CC(C)=Cc1cc(C)c2ccc(C)c3c2c1C(C)=C(O)C3=O | 4.45 | 19.7 µM | > 100 | > 100 µM | 24.3 | 61.6 µM | 15.6 | 49.2 µM | 27.5 | 73.7 µM | 32 | 79.5 µM | 51.2 | > 100 | 2.99 | 9.9 µM | 15.7 | 51.3 | 40.8 | > 100 µM
CN(C)CCN1C(=O)c2cccc3c(/C=C/CN4C(=O)c5cccc6cccc(c56)C4=O)ccc(c23)C1=O | 0.339 | 69.9 µM | 28.3 | > 100 µM | 21.9 | 70.5 µM | > 100 | > 100 µM | > 100 | > 100 µM | 6.33 | 19.5 µM | > 100 | > 100 | > 100 | > 100 µM | > 100 | > 100 | > 100 | > 100 µM
CCN1CCN(c2cc(C(=O)Nc3cccc(Nc4ccc5c(OC)cccc5n4)c3)cc(C(F)(F)F)c2)CC1 | 0.758 | 2.06 µM | 1.21 | 4.97 µM | 1.4 | 5.57 µM | 3.41 | 9.04 µM | 1.16 | 4.93 µM | 3.28 | 7.31 µM | 1.34 | 5.32 | 3.82 | 11.4 µM | 1.29 | 6.69 | 3.07 | 9.46 µM
COc1ccc(CSC2=C(C#N)C(=O)NC3(CCCCC3)S2)cc1 | – | 24.7 µM | – | > 100 µM | – | > 100 µM | – | > 82.1 µM | – | 38.2 µM | – | > 100 µM | – | > 100 | – | 19 µM | – | > 100 | – | > 100 µM
CC1CCCC(C#N)(NOC2=NCCN2)C1 (stereo not given) | 53.8 | > 100 µM | 18.9 | 46 µM | 26.5 | > 100 µM | 43 | > 100 µM | 35.4 | > 100 µM | 15.5 | 40.4 µM | 43.3 | > 100 | 16.8 | 93 µM | > 100 | > 100 | 0.0758 | 28.2 µM
OCCCCC#Cc1ccccc1C#Cc1cccnc1 | 33.9 | > 100 µM | 28.3 | > 100 µM | 26.9 | 82.6 µM | 32.9 | > 100 µM | 32.2 | > 100 µM | 43 | > 100 µM | 31.6 | > 100 | 26.8 | 75.1 µM | 28.9 | > 100 | 41.7 | > 100 µM
CC(C)C1(NC(=O)C2CC3c4cccc5[nH]cc(c45)CC3N(C)C2)OC2(O)C3CCCN3C(=O)C(Cc3ccccc3)N2C1=O (stereo not given) | – | > 100 µM | – | > 100 µM | – | > 100 µM | – | > 100 µM | – | > 100 µM | – | > 100 µM | – | > 100 | – | 24.9 µM | – | > 100 | – | > 100 µM
O=C1NC(=O)C(c2cccc(Cl)c2)=C1Nc1ccc(Cl)c(C(=O)O)c1 | > 25 | > 25 µM | > 25 | > 25 µM | > 25 | > 25 µM | > 25 | > 25 µM | > 25 | > 25 µM | > 25 | > 25 µM | > 25 | > 25 | > 25 | > 25 µM | > 25 | > 25 | > 25 | > 25 µM
COC(=O)CC1(O)C=CC(=O)C=C1 | – | 6.11 µM | – | 9.79 µM | – | 37.6 µM | – | 13.7 µM | – | 21.8 µM | – | 12.8 µM | – | 5.02 | – | > 22.6 µM | – | 32.4 | – | 15.5 µM
O=c1[nH]c2ccccc2c(O)c1/C=N/C(=S)NC1CCCCC1 | – | > 100 µM | – | > 100 µM | – | > 100 µM | – | > 100 µM | – | > 100 µM | – | > 100 µM | – | > 100 | – | > 100 µM | – | > 100 | – | > 100 µM
CN1CCN(CCCOc2ccc3nc(Nc4ccc(F)c(F)c4)ccc3c2)CC1 | 1.95 | 11.6 µM | 2.24 | 5.6 µM | 2.97 | 11.8 µM | 2.11 | 6.37 µM | 1.68 | 3.36 µM | 1.8 | 3.73 µM | 1.91 | 4.12 | 1.26 | 4.2 µM | 3.4 | 14.7 | 3.17 | 13.1 µM
O=S(=O)(/N=S(/Nc1ccccc1)C(F)(F)Cl)c1ccccc1 (stereo not given) | – | > 100 µM | – | > 100 µM | – | > 100 µM | – | > 100 µM | – | > 100 µM | – | > 100 µM | – | > 100 | – | > 100 µM | – | > 100 | – | > 100 µM
CC12CCC(=O)C(O1)C1C(=O)c3ccc4c(ccc5ccccc54)c3C(=O)C12 (stereo not given) | 3.77 | > 100 µM | 3.13 | 8.21 µM | 5.42 | 10.3 µM | 1.2 | 2.64 µM | 13 | 26.4 µM | 18.8 | 45.3 µM | 4.84 | 11.8 | 1.66 | 7.21 µM | 5.43 | 12.6 | 8.47 | 19 µM
CCC[CH2][Sn]([CH2]CCC)([CH2]CCC)/[C](=C/[Si](C)(C)c1ccccc1)c1ccc2c(c1)OCO2 | 12 | 73.2 µM | 18.4 | 36.2 µM | 19.1 | 39 µM | 19.8 | 40.2 µM | 15.7 | 31.3 µM | 36 | > 100 µM | 21.3 | 52.3 | 15.8 | 35.4 µM | 26.2 | 86.3 | 15.2 | 50.7 µM
COc1cc(/C=C/C(=O)CC(=O)/C=C/c2cc(OC)c(O)c(OC)c2)cc(OC)c1O | 4.01 | > 25 µM and 64.8 µM | 42.2 | 25 µM and > 100 µM | 57.3 | 23.7 µM and > 100 µM | 18.6 | 17.3 µM and > 100 µM | – | 16.3 µM and 24 µM | 44.2 | 25 µM and > 100 µM | – | > 100 | – | 25 µM and 42.6 µM | > 100 | > 100 | 18.7 | 25 µM and 71.2 µM
Nc1nc(Cl)nc2c1ncn2C1OC(CO)C(O)C1F (stereo not given) | – | 0.424 µM | 0.169 | > 21.2 µM | < 0.0439 | – | > 100 | > 100 µM | 0.0472 | > 100 µM | 2.07 | 7.48 µM | 0.462 | > 100 | 0.308 | > 100 µM | < 0.0166 | 4.98 | 1.46 | > 100 µM
COc1ccc(Nc2ncnc3ccc(-c4cncc(NS(C)(=O)=O)c4)cc23)cc1Cl | 0.896 | 10 µM | 4.92 | > 100 µM | 3.09 | 18.7 µM | 1.66 | 4.78 µM | 3.19 | 15.3 µM | 1.84 | 7.72 µM | 4.11 | 17 | 2.02 | 6.72 µM | 21.4 | 81.5 | 1.99 | 6.82 µM
